Data set [1] is described as follows: In vitro dissolution simulation experiment, phosphate buffer pH 7.4. The data set is classed as physicochemical. As to conditions: pH 7.4 phosphate buffer, 37° C. How it is done:
The mixtures were shaken at 37° C.

Data set [2] can be described thus: Related substances stability of solids under stress conditions (HPLC). The class given is physicochemical. As to conditions: for Total related substances: left to stand under these conditions for 10 days. On the procedure:
(§1) Unless otherwise indicated, the starting materials and reagents in the examples below are either commercially available or prepared by one skilled in the art according to methods known in the art. The salt compounds of the examples were tested by nuclear magnetic resonance (^1H-NMR), X-ray powder diffraction (XRPD), differential scanning calorimetry (DSC), thermogravimetric analysis (TGA), hot-stage polarized light microscopy (PLM) and high performance liquid chromatography (HPLC), and the test parameters are as follows: • (1) The ^1H-NMR measurements were taken on a Bruker Advance III500M nuclear magnetic resonance spectrometer at a frequency of […] with deuterated DMSO as the solvent. • (2) The DSC measurements were taken on a sealed pan device in TA Instruments model Q2000: samples (about 1-2 mg) were weighed in aluminum pans and transferred to the instrument for measurement. The test parameters are as follows: the instrument was equilibrated at 30° C. and heated to 300° C. at a rate of 10° C./min, data was collected, and the experiments were conducted in a nitrogen atmosphere. • (3) The TGA measurements were taken on a TA Instruments model Q500 device: samples (about 2-5 mg) were weighed in aluminum pans and transferred to the instrument for measurement. The test parameters are as follows: the instrument was heated to 350° C. at a rate of 10° C./min, data was collected, and the experiments were conducted in a nitrogen atmosphere. • (4) The XRPD measurements were taken on a Bruker model D8 Advance X-ray powder diffractometer using a round zero background single crystal silicon sample stage. The scan parameters are as follows: voltage, 40 kv; current, 40 mA; scan range, 3-45°; scan increment, 0.02°; scan mode, continuous scan. • (5) The PLM analyses were performed under a model DYP990/TPH350 hot stage polarizing microscope from Shanghai Dian Ying Optical Instruments: a small amount of sample was dispersed in a glass slide and photographed using an eyepiece lens at a magnification of 10× and an objective lens at a magnification of 5-40×. • (6) Methods of measuring HPLC content and detecting related substances: […]

A further data set can be described thus: physchem. As to conditions: for solubility at 24 h: 37 °C, thermodynamic from solid. How it is done:
The mixtures were shaken at 37° C. for 24 h and filtered through 0.45 μm aqueous-phase filter membranes. The filtrates were collected and the solubility was determined by high performance liquid chromatography. pH3, pH4, pH5 and pH6 represent acetate buffer solutions, and pH7, pH7.4, pH8 and pH9 represent phosphate buffer solutions.

Data set [3] in a line: Crystalline form stability of solids under stress conditions (XRPD). The class given is physicochemical. On the procedure: as §1
The nature of data set [4]: Pharmacokinetic experiment in rats (plasma cariprazine, LC-MS/MS). The data set is classed as in vivo, SD rats.
Method: In the whole experiment, the animals from the intramuscular injection group were given ad libitum access to food and water, and those from the oral intragastrical group were fasted overnight before administration and given access to food 4 h after administration.
Plasma sample collection: about 150 μL of blood was collected from the jugular vein (whole blood was centrifuged within 30 min to isolate plasma) and placed in a tube containing anticoagulant EDTA-K2, and after treatment, plasma was stored in a freezer at −70° C. before use.
Pretreatment of plasma sample: to 30 μL of plasma sample was added 200 μL of internal standard solution (40 ng/mL Glipizide acetonitrile solution); the mixture was vortexed for 1 min and centrifuged at 5800 rpm at 4° C. for 10 min; 100 μL of supernatant was transferred to a new plate and 1 μL of solution was taken for LC-MS/MS analysis.
[5] abbreviates: left to stand under these conditions for 10 days.

In brackets after ≈: the same amount, converted by molar mass. Where a name gives a salt, the structure may show the parent alone. Read-outs that look alike come from different tables or passages of the source.

For `CN(C)C(=O)NC1CCC(CCN2CCN(c3cccc(Cl)c3Cl)CC2)CC1` (centres unmarked) [Amorphous cariprazine embonate, cariprazine embonate], the Concentration in data set [1] (1 (h)) is 11940 ng/mL; in data set [1] (3.5 (h)), 10300 ng/mL; in data set [1] (5 (h)) it was 9580 ng/mL; in data set [1] (7 (h)), 7080 ng/mL; in data set [1] (24 (h)) it was 9900 ng/mL. The Increase in impurities result in data set [2] (high-temperature conditions) is on record as “bigger increase in impurities”.
On to `CN(C)C(=O)N[C@H]1CC[C@H](CCN2CCN(c3cccc(Cl)c3Cl)CC2)CC1` [Cariprazine], for which the solubility at 24 h in the data set “physchem” (pH 8, aqueous buffer) is 1 µg/mL (≈ 2.34 µM); in “physchem” (water), about 180 µg/mL (≈ 421 µM).
As for `CN(C)C(=O)NC1CCC(CCN2CCN(c3cccc(Cl)c3Cl)CC2)CC1` (centres unmarked) [Crystalline form A of cariprazine embonate], the Crystalline form result in data set [3] (setting [5]) is “its crystalline form did not change”. Further, in data set [3] (setting [5]), the Crystallinity result is “did not change significantly”. Further, the Concentration in data set [1] (1 (h)) was 1000 ng/mL; in data set [1] (3.5 (h)) it was 3400 ng/mL; in data set [1] (5 (h)) it was 4100 ng/mL; in data set [1] (7 (h)), 3900 ng/mL; in data set [1] (24 (h)), 2500 ng/mL. Also, the “Length of release among the crystalline forms” value in data set [4] (rats, single intramuscular injection 9 mg/kg) is given as “best length of release”. In addition, in data set [2], the Total related substances result was “remained substantially unchanged”.
As to `CN(C)C(=O)NC1CCC(CCN2CCN(c3cccc(Cl)c3Cl)CC2)CC1` (centres unmarked) [Crystalline form B of cariprazine embonate], the Concentration in data set [1] (1 (h)) is 5300 ng/mL; in data set [1] (3.5 (h)), 4000 ng/mL; in data set [1] (5 (h)) it was 5200 ng/mL; in data set [1] (7 (h)) it was 2200 ng/mL; in data set [1] (24 (h)) it was 1700 ng/mL. In addition, in data set [2], the Total related substances result is “remained substantially unchanged”.
For the molecule `CN(C)C(=O)NC1CCC(CCN2CCN(c3cccc(Cl)c3Cl)CC2)CC1` (centres unmarked) [Crystalline form G of cariprazine embonate], the Concentration is 1300 ng/mL in data set [1] (1 (h)); 4510 ng/mL in data set [1] (3.5 (h)); 2280 ng/mL in data set [1] (5 (h)); 1840 ng/mL in data set [1] (7 (h)); 8050 ng/mL in data set [1] (24 (h)). The Total related substances result in data set [2] was “remained substantially unchanged”.
Consider `CN(C)C(=O)NC1CCC(CCN2CCN(c3cccc(Cl)c3Cl)CC2)CC1` (centres unmarked) [cariprazine embonate], for which the Crystalline form result in data set [3] (high-humidity conditions and accelerated conditions) was “change into crystalline form A of cariprazine embonate”; in data set [3] (high-temperature conditions and illuminated conditions), “its crystalline form did not change”. Moreover, the “Absorption after oral administration” value in data set [4] (rat, in vivo, po, 0.3 mg/kg) is recorded as “fast absorption”.
`CN(C)C(=O)N[C@H]1CC[C@H](CCN2CCN(c3cccc(Cl)c3Cl)CC2)CC1` [cariprazine hydrochloride]: the solubility at 24 h in the data set “physchem” (pH 3, aqueous buffer) was 12300 µg/mL; in “physchem” (pH 4, aqueous buffer), 9770 µg/mL; in the data set “physchem” (pH 5, aqueous buffer) it was 1080 µg/mL; in “physchem” (water), about 11000 µg/mL.
As for cariprazine malate, the Solubility is over 1065.7 µg/mL in the data set “physchem”; over 266.4 µg/mL in “physchem” (pH 3); over 228.4 µg/mL in “physchem” (pH 5); under 304.5 µg/mL in the data set “physchem” (pH 7); under 152.2 µg/mL in the data set “physchem” (pH 9).
In the case of cariprazine succinate, the Solubility in the data set “physchem” is over 261.2 µg/mL; in the data set “physchem” (pH 3) it was over 215.5 µg/mL; in the data set “physchem” (pH 9), under 215.5 µg/mL.

These data come from US20230355612A1 (SHANGHAI BOCIMED PHARMACEUTICAL CO., LTD., priority 2020, published 2023).
